Laboratory results as given in the supplement of paper PMC10307832.

How the values were obtained:
Test in all cases: relative viability (nuclei count vs DMSO), 5 days (fraction); higher = more cells survive
[1] = compound: C=CCc1cccc(/C=N/NC(=O)CN2CCN(Cc3ccccc3)CC2)c1O [PAC-1] + CC(=O)Nc1cccc(-n2c(=O)n(C3CC3)c(=O)c3c(Nc4ccc(I)cc4F)n(C)c(=O)c(C)c32)c1 [Trametinib] (partner 0.02 µM)
In short: (§1)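 For relative viability, nuclei counts in treated wells were divided by those in vehicle wells. Lung cancer cell lines had been pin-tool dosed in 1536-well plates the day after seeding and cultured for 5 days, then fixed and stained in one step (final 0.05% Triton X-100, 1% formaldehyde, 1 ug/ml Hoechst) and imaged at 4×. Doses were one drug alone or a fixed anchor-drug dose plus five library-drug doses (not always all listed) in √10 steps, and values are duplicate-plate medians.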

[2] = compound: C=CC(=O)N1CCC[C@@H](n2nc(-c3ccc(Oc4ccccc4)cc3)c3c(N)ncnc32)C1 [Ibrutinib] + CCNC(=O)c1noc(-c2cc(C(C)C)c(O)cc2O)c1-c1ccc(CN2CCOCC2)cc1 [Luminespib] (partner 0.01 µM)
In short: as §1

[3] = compound: C=CCc1cccc(/C=N/NC(=O)CN2CCN(Cc3ccccc3)CC2)c1O [PAC-1] + N=C(N)NC(=N)NCCc1ccccc1 [Phenformin] (partner 250 µM)
In short: as §1

[4] = compound: C=CC(=O)N1CCC[C@@H](n2nc(-c3ccc(Oc4ccccc4)cc3)c3c(N)ncnc32)C1 [Ibrutinib] + CC(C)C[C@H](NC(=O)[C@H](Cc1ccccc1)NC(=O)c1cnccn1)B(O)O [Bortezomib] (partner 0.002 µM)
In short: as §1

Cell Line | relative viability ([1]; first compound 0.02 µM) | relative viability ([1]; first compound 0.06325 µM) | relative viability ([1]; first compound 0.2 µM) | relative viability ([1]; first compound 2 µM) | relative viability ([2]; first compound 0.005 µM) | relative viability ([2]; first compound 0.01581 µM) | relative viability ([2]; first compound 0.05 µM) | relative viability ([2]; first compound 0.5 µM) | relative viability ([3]; first compound 0.02 µM) | relative viability ([3]; first compound 0.06325 µM) | relative viability ([3]; first compound 0.2 µM) | relative viability ([3]; first compound 2 µM) | relative viability ([4]; first compound 0.005 µM) | relative viability ([4]; first compound 0.01581 µM) | relative viability ([4]; first compound 0.05 µM) | relative viability ([4]; first compound 0.1581 µM) | relative viability ([4]; first compound 0.5 µM) | relative viability ([2]; first compound 0.1581 µM)
HCC-44 | 1.05 | 1.08 | 1.07 | 1.02 | 1.11 | 1.02 | 0.977 | 1.16 | 0.184 | 0.18 | 0.17 | 0.131 | 0.896 | 0.881 | 0.987 | 0.908 | 0.946 | –
HCC-78 | 0.725 | 0.725 | 0.849 | 0.782 | – | – | – | – | 0.8 | 0.639 | 0.809 | 0.759 | 0.513 | 0.453 | 0.58 | 0.496 | 0.488 | –
HCC-366 | 0.339 | 0.318 | 0.312 | 0.365 | – | – | – | – | 0.612 | 0.634 | 0.595 | 0.655 | 1.03 | 0.977 | 1.09 | 1.01 | 1.07 | –
HCC-827 | 0.505 | 0.569 | 0.528 | 0.536 | 0.657 | 0.355 | 0.589 | 0.212 | 0.383 | 0.402 | 0.368 | 0.4 | 1.19 | 1.05 | 1.15 | 0.982 | 0.807 | 0.673
HOP-62 | 0.387 | 0.404 | 0.388 | 0.406 | – | 0.881 | 0.958 | 0.918 | 0.692 | 0.541 | 0.585 | 0.647 | 0.459 | 1 | 0.816 | 0.834 | 0.804 | 0.935
IA-LM | – | – | – | – | – | – | – | – | – | – | – | – | 0.846 | 0.781 | 0.926 | 0.989 | 0.863 | –
LC-2-ad | 0.933 | 0.919 | 0.897 | 0.954 | 1.06 | 1.01 | 1.14 | – | 0.609 | 0.654 | 0.573 | 0.512 | 1.18 | 1 | 1.06 | 0.965 | 1.02 | 1.13
LCLC-97TM1 | 0.179 | 0.196 | – | 0.221 | 0.795 | 0.656 | 0.798 | 0.735 | 0.507 | 0.456 | 0.424 | 0.427 | 0.447 | 0.851 | 0.385 | 0.153 | 0.732 | 0.867
LK-2 | 0.758 | 0.629 | 0.785 | 0.791 | – | 0.183 | 0.176 | 0.164 | 0.258 | 0.479 | 0.381 | 0.559 | – | – | – | – | – | 0.166
NCI-H358 | 0.128 | 0.121 | 0.164 | 0.128 | 0.366 | 0.253 | 0.306 | 0.174 | 0.305 | 0.314 | 0.269 | 0.374 | – | – | – | – | – | 0.267
NCI-H522 | 0.675 | 0.915 | 0.848 | 0.77 | 1.11 | 1.05 | 1.17 | 0.922 | 0.78 | 0.662 | 0.693 | 0.631 | – | – | – | – | – | 1.07
NCI-H1299 | – | – | – | – | – | – | – | – | – | – | – | – | 1.02 | 1 | 0.995 | 1.02 | 1.04 | –
NCI-H1395 | 1.1 | 1 | 0.976 | 0.974 | 0.488 | 0.739 | 1.15 | 0.702 | 0.45 | 0.429 | 0.421 | 0.426 | – | – | – | – | – | 0.788
NCI-H1563 | – | – | – | – | 0.538 | 0.524 | 0.519 | 0.53 | 0.655 | 0.679 | 0.663 | 0.66 | 0.778 | 0.771 | 0.807 | 0.742 | 0.752 | 0.519
NCI-H1623 | – | – | – | – | 0.382 | 0.505 | 0.486 | 0.304 | 0.6 | 0.565 | 0.592 | 0.602 | – | – | – | – | – | 0.414
NCI-H1648 | 0.388 | 0.525 | 0.445 | 0.504 | – | – | – | – | – | – | – | – | – | – | – | – | – | –
NCI-H1703 | – | – | – | – | – | – | – | – | – | – | – | – | 0.374 | 0.308 | 0.332 | 0.409 | 0.231 | –
NCI-H1793 | 0.363 | 0.423 | 0.39 | 0.405 | – | 0.155 | 0.196 | 0.151 | 0.327 | 0.376 | 0.355 | 0.353 | – | – | – | – | – | 0.177
NCI-H1944 | 0.414 | 0.393 | 0.433 | 0.444 | 0.649 | 0.57 | 0.714 | 0.536 | 0.198 | 0.198 | 0.19 | 0.189 | – | – | – | – | – | 0.669
NCI-H2170 | 0.888 | 0.958 | 0.932 | 0.859 | 0.435 | 0.425 | 0.446 | 0.344 | 0.426 | 0.356 | 0.422 | 0.384 | – | – | – | – | – | 0.741
NCI-H2342 | 1.16 | 0.816 | 0.697 | 0.83 | 0.719 | 0.608 | 0.707 | 0.497 | 0.552 | 0.474 | 0.579 | 0.611 | – | – | – | – | – | 0.655
SW 900 | – | 0.8 | 0.686 | 0.817 | – | – | 0.159 | 0.19 | 0.43 | 0.575 | 0.568 | 0.415 | – | – | – | – | – | 0.175
